Columns and labels:
[1] = tested on: cultured HUVECs; assay: Surface-localized fibrinolytic activity (125I-labeled Glu-Pmg conversion to plasmin) in cultured HUVECs; format: cell-based, human; details: 1 hour preincubation; for surface-localized fibrinolytic activity, maximum increase: 0.001 μM, control 38.0 pmol/well; for surface-localized fibrinolytic activity, maximum increase / surface-localized fibrinolytic activity, peak: 24 hours after induction; for increase in fibrinolytic activity compared to control: measured 24 hours later; for surface-localized fibrinolytic activity, peak: 10 μM, control 38.0±4.0
Protocol: Human umbilical vein ECs (HUVECs) were obtained from fresh (discarded) umbilical cords by mild collagenase treatment (type 1, CLS) by the method of Jaffe et al (J. […] ECs were seeded into human fibronectin-coated Petri dishes (9.6 cm^2) or plastic flasks (25 cm^2) and grown to confluency. Cultures were maintained at 37° C. in a humidified 95% air, 5% CO2 atmosphere and re-fed every 48 hours with complete culture medium consisting of Medium 199 (M199) powdered medium containing L-glutamine and Earle's salt, 0.025 M HEPES buffer (pH 7.4), 0.0002 M fresh L-glutamine, 100 units/ml of penicillin, 100 μg/ml streptomycin, 10% heat-deactivated FBS, 90 μg/ml heparin and 50 μg/ml of unpurified ECGF. […] Cells were routinely counted using phase microscopy and a 0.5 mm×0.5 mm counting reticule. Individual HUVEC cultures were routinely examined for their purity and characterized as ECs by their uptake of Dil-Ac-LDL and typical monlayer “cobblestone” tight-packing morphology. Only individual cultures with 95% identifiable ECs were used in these studies. All alcohol induction studies were conducted with confluent cultured HUVECs (in 96-well plates) preincubated in the absence/presence of varying concentration of alcohol (0-0.1%, v/v) for one hour at 37° C., washed two times in DBPS, re-fed with complete 10% serum containing medium and then further incubated at 37° C. in the absence of alcohol for 24 hours. surface-localized fibrinolytic activity was measured as the conversion of ^125-labeled Glu-Pmg levels after 24 hours. All studies were conducted with confluent cultured HUVECs. The cells were preincubated in the absence/presence of varying dilutions (1:1000, 1:500, 1:250, 1:125, 1:62.5) of red wine, de-alcoholized red wine or grape juice for 1 hour at 37° C., washed two times with DPBS, re-fed with complete 10% serum-containing medium, and then further incubated at 37° C. in the absence of these compounds for 24 hours. Surface-localized fibrinolytic activity was measured as the conversion of ^125-labeled Glu-Pmg levels after 24 hours. All polyphenolic induction studies were conducted with confluent cultured HUVECs (in 96-well plates). The cells were preincubated in the absence/presence of varying concentrations (0.001-10 μM) of catechin, epicatechin, quercetin or resveratrol for 1 hour at 37° C., washed two times with DPBS, re-fed with complete 10% serum-containing medium, and then further incubated at 37° C. in the absence of these compounds for 24 hours. Surface-localized fibrinolytic activity was measured by the direct conversion of cell-bound ^125I-labeled Glu-Pmg hours after the initial induction period. […] The generation of either ^125I-labeled plasmin Mr 20-kDa light or Mr 83-kDa heavy chain formation was quantitated by phosphorimaging autoradiography after SDS-PAGE under reduced conditions. […] The cultures were then placed in a water bath at 37° C. to initiate the receptor-bound endogenous PA-mediated conversion of ^125I labeled Glu-Pmg to ^125I-labeled plasmin. Reactions were stopped after 1 and 10 minutes by the rapid addition of 40 μl of hot (56° C.) solubilizing buffer (4% sodium dodecyl sulfate (SDS), 10% glycerol and 0.2M Tris-HCl, pH 6.8). The total solubilized contents of each well containing generated ^125I-labeled plasmin were removed and reduced by the addition of 5% B-mercaptoethanol and boiling for 5 minutes. […] The radioactivity content of either the ^125I-labeled plasmin light- or heavy-chains was determined by quantitative phosphorimaging autoradiography. After electrophoresis, gels were dried and exposed in phosphorimaging cassettes for 16-18 hours. The amount of remaining ^125I-labeled Glu-Pmg and newly generated ^125I-labeled Mr 20-kDa plasmin light chain in each individual gel was quantitated by measuring the radioactivity content in each band by phosphorimaging autoradiography, using a Molecular Dynamics Series […] Phosphorimager in combination with ImageQuant software. […]

[2] = tested on: t-PA mRNA; assay: t-PA mRNA expression in rat aortic endothelium by in situ hybridization after gavage; format: in vivo, Sprague Dawley rats; details: 6 hours after gavage; catechin 0.495, epicatechin 0.224, quercetin 0.033, resveratrol 0.0033 mg/kg; ethanol 1.25% v/v
Protocol: (§1) Rats used in in vivo studies were Sprague Dawley rats weighing 250 to 300 grams.
For in vivo studies, 18 male Sprague Dawley rats, 250-300 g, were intubated with Popper feeding tubes (20 gauge, 1.5 inches). The control group of three rats were gavaged with PBS in a final volume of 1 ml. Five experimental groups with three rats per groups were gavaged with 1 ml of PBS containing either individual phenolic (catechin, 0.495; epicatechin, 0.224; quercetin, 0.033; and resveratrol, 0.0033 mg/kg body weight), or ethanol 1.25% v/v, for final 0.05% blood level. These doses of phenolics and ethanol are equivalent, on a per kg basis, to the amount consumed in about 2 glasses (25 ml) of red wine by a 70 kg adult. The t-PA and u-PA mRNA expression was analyzed at 6 hours after treatment, when the rats were anesthetized with ketamine/rompin. The thoracic aorta was perfusion-fixed and paraffin embedded to evaluate the effects of ethanol and individual phenolics on the induction of t-PA and u-PA mRNA expression in vivo in the aortic endothelium using in situ hybridization using riboprobes.
To insure that the t-PA and u-PA sense and antisense riboprobes were specific for their respective mRNAs in tissue sections, the sequence-verified riboprobes were hybridized with purified rat liver RNA, rich in t-PA and u-PA mRNA.

[3] = tested on: PAI-1 mRNA; assay: PAI-1 mRNA expression in rat thoracic aorta endothelial cells by in situ hybridization after gavage; format: in vivo; details: 6 hours after gavage; catechin 0.495, epicatechin 0.224, quercetin 0.033, resveratrol 0.0033 mg/kg; ethanol 1.25% v/v
Protocol: as §1
In in vivo studies of rat thoracic aorta, eighteen male rats were treated by gavage as indicated above. One control group of three rats was gavaged with 1 ml of saline. Five experimental groups with three rats per group were then gavaged with 1 ml saline containing one of the following: (i) 1.25% (v/v) ethanol, (i) 0.495 mg catechin per kg body weight, (iii) 0.224 mg epicatechin per kg body weight, (iv) 0.033 mg quercetin per kg body weight, or (v) 0.0033 mg resveratrol per kg body weight.
At 3 and 6 hours following gavage, the animals were anesthetized with ketamine/rompin (10 and 1.5 mg/100 g body weight, respectively). The portal vein was cannulated and the vasculature perfused with cold, heparinized saline for 5 minutes to remove blood. […] The thoracic aorta was perfused-fixed and paraffin embedded to evaluate the short-term effects of alcohol/phenolics on PA1-I mRNA expression using in situ hybridization techniques.

Compound	surface-localized fibrinolytic activity, maximum increase [1]	increase in fibrinolytic activity compared to control ([1]; 0.05% (v/v) ethanol, p=0.05)	increase in fibrinolytic activity compared to control ([1]; 0.1% (v/v) ethanol, p=0.0055)	t-PA mRNA chromogenic signal intensity (antisense riboprobe) in aortic tissue sections vs PBS-treated animals [2]	expression of PAI-1 mRNA in endothelium of thoracic aorta [3]	surface-localized fibrinolytic activity, peak [1]
Oc1cc(O)c2c(c1)O[C@H](c1ccc(O)c(O)c1)[C@H](O)C2 [epicatechin]	89.0±4.0 pmol/well	–	–	–	–	–
CCO [ethanol, reference compound]	–	about 1.5 fold	about 3 fold	more chromogenic signal intensity	significant decrease	–
O=c1c(O)c(-c2ccc(O)c(O)c2)oc2cc(O)cc(O)c12 [quercetin]	–	–	–	more chromogenic signal intensity	markedly reduced	64.0±6.0
Oc1ccc(C=Cc2cc(O)cc(O)c2)cc1 [resveratrol]	–	–	–	more chromogenic signal intensity	markedly reduced	55.0±6.0
catechin	91.5±5.0 pmol/well	–	–	more chromogenic signal intensity	markedly reduced	–
